As a reminder, the IC50 is the midpoint of a concentration-inhibition curve. Higher therefore signals weaker potency.

Molecules are shown by their SMILES.

This note sets out measurements from patent US20100197757A1, “OXINDOLES AS KINASE INHIBITORS” (priority 2005, published 2010).

The experiment concerns MEK. Nature of the experiment: IC50 column of the compound table in Example 1 (assay not given).
For the compound `N/C(=C1\C(=O)Nc2cc(Cl)ccc21)c1ccccc1` [No. a, 3-(Amino-phenyl-methylene)-6-chloro-1,3-dihydro-indol-2-one], the IC50 came to 1100 nM.
`N/C(=C1\C(=O)Nc2ccc(Cl)cc21)c1ccccc1` [No. b, 3-(Amino-phenyl-methylene)-5-chloro-1,3-dihydro-indol-2-one] registered an IC50 of 260 nM.
Compound `N/C(=C1\C(=O)Nc2ccccc21)c1ccc(O)cc1` [No. c, 3-[Amino-(4-hydroxy-phenyl)-methylene]-1,3-dihydro-indol-2-one] registered a half-maximal inhibitory concentration (IC50) of 940 nM.
Compound `N/C(=C1\C(=O)Nc2ccccc21)c1ccc(I)cc1` [No. d, 3-[Amino-(4-iodo-phenyl)-methylene]-1,3-dihydro-indol-2-one] gave an IC50 of 2700 nM.
On to `N/C(=C1\C(=O)Nc2cc(Cl)ccc21)c1ccc(I)cc1` [No. e, 3-(Amino-(4-iodo-phenyl)-methylene)-6-chloro-1,3-dihydro-indol-2-one], for which the IC50 came out at 4100 nM.
For the compound `N/C(=C1\C(=O)Nc2ccc(Cl)cc21)c1ccc(I)cc1` [No. f, 3-(Amino-(4-iodo-phenyl)-methylene)-5-chloro-1,3-dihydro-indol-2-one], the IC50 worked out at 1100 nM.
In turn, `N/C(=C1\C(=O)Nc2ccc(Br)cc21)c1cccc(I)c1` [No. n, 3-(Amino-(3-iodo-phenyl)-methylene)-5-bromo-1,3-dihydro-indol-2-one] returned an IC50 of 3400 nM.
`COc1ccc(/C(N)=C2/C(=O)Nc3ccccc32)cc1` [No. o, 3-[Amino-(4-methoxy-phenyl)methylene]-1,3-dihydro-indol-2-one] had an IC50 of 3100 nM.
As for `COc1ccc(/C(N)=C2/C(=O)Nc3cc(Cl)ccc32)cc1` [No. p, 3-(Amino-(4-methoxy-phenyl)-methylene)-6-chloro-1,3-dihydro-indol-2-one], half-maximal inhibition (IC50) required 8700 nM.
